Laboratory results taken from patent US7507727B2, “Substituted quinobenzoxazine analogs and methods of using thereof” (Cylene Pharmaceuticals, Inc., priority 2003, dated 2009).
Converted amounts (≈) assume the structure as drawn.

Assays:
[1] = system: BCl-2 quadruplex (BCL2-97); experiment: Direct interaction assay; type: binding
From the text: (§1) Direct Interaction Assay. Compounds may be evaluated for their ability to interact directly with nucleic acids capable of forming a quadruplex structure, wherein the nucleic acid is not a telomeric nucleic acid. The assay may be performed in the same or different vessels. For example, a compound may be contacted with each nucleic acid in the same vessel. Alternatively, a compound may be separately contacted with each of the nucleic acids tested in a different vessel. A telomeric nucleic acid as used herein represents a region of highly repetitive nucleic acid at the end of a chromosome. As used herein, a direct interaction is measured without the presence of a competitor nucleic acid.
(§2) An interaction between the compound and the nucleic acid may be determined for example, by measuring IC50 values, which are indicative of the binding and/or quadruplex stabilization. The selectivity of interactions may be determined, for example, by comparing measured IC50 values. For example, the-lowest IC50 values may be used to indicate a strong interaction between the compound and the nucleic acid, while highest IC50 values show a poor interaction; thus, showing selectivity of interaction. The reaction products were characterized by capillary electrophoresis.
(§3) Using a direct interaction assay, CX-3543 was screened for its ability to bind to and/or stabilize different types of quadruplexes. In this example, a 5′-fluorescent-labeled (FAM) primer (P45, 15 nM) is mixed with template DNA (15 nM) in a Tris-HCL buffer (15 mM Tris, pH 7.5) containing 10 mM MgCl2, 0.1 mM EDTA and 0.1 mM mixed deoxynucleotide triphosphates (dNTP's). The mixture is denatured at 95° C. for 5 minutes and, after cooling down to room temperature, is incubated at 37° C. for 15 minutes. After cooling down to room temperature, 1 mM KCl and the test compound at various concentrations are added, and the mixture incubated for 15 minutes at room temperature. The primer extension is performed by adding […] and Taq DNA Polymerase (2.5 U/reaction, Promega), and incubating at 70° C. for 20 minutes.

[2] = system: H-RAS quadruplex (HRAS-85); experiment: Direct interaction assay; type: binding
From the text: as §1, §2, §3

[3] = system: HMGA-2 quadruplex (HMGA-97); experiment: Direct interaction assay; type: binding
From the text: as §1, §2, §3

[4] = system: Hum Tel quadruplex (Humtel-95); experiment: Direct interaction assay; type: binding
From the text: as §1, §2, §3

SRC quadruplex (SRC89) = experiment: Direct interaction assay; type: binding
From the text: as §1, §2, §3

[5] = system: TGF-β quadruplex (TGFB3-81); experiment: Direct interaction assay; type: binding
From the text: as §1, §2, §3

c-myc quadruplex (MYC99) = experiment: Direct interaction assay; type: binding
From the text: as §1, §2, §3

i-motif (IMOTIF99) = experiment: Direct interaction assay; type: binding
From the text: as §1, §2, §3

CYP1A2 = CYP1A2 (Homo sapiens, UniProt P05177); experiment: Cytochrome P450 inhibition assay; type: in vitro ADME
Chain of CYP1A2 (P05177 whole entry): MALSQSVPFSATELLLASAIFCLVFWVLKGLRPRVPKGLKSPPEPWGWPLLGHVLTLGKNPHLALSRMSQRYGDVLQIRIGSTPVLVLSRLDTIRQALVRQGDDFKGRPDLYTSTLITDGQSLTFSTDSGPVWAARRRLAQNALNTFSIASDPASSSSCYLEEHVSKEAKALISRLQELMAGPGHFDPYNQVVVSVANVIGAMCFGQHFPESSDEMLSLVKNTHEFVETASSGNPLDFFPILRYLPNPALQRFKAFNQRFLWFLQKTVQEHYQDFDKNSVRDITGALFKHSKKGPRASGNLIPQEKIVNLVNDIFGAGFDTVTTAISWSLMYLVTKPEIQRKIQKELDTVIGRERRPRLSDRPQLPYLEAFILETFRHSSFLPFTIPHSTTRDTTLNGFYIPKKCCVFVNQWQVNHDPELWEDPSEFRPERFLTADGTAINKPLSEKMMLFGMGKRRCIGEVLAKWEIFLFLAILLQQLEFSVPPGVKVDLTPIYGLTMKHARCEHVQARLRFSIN
Method: (§4) Cytochrome P450 (CYP450) Inhibition Assay. […] The reactions were initiated by adding 100 μL of a pre-warmed enzyme/substrate solution to the reaction tubes. A zero time-point control reaction was prepared by adding 50 μL of acetonitrile to 100 μL of cofactor solution to inactivate the enzymes, then adding 100 μL of enzyme/substrate solution. A control reaction with no inhibitor was also prepared. After a suitable incubation at 37° C., the reactions were terminated by the addition of 50 μL of acetonitrile. The reactions were analyzed for the metabolite forms of the probe substrate using LC/MS/MS. Each assay was performed in duplicate.

CYP2C19 = CYP2C19 (Homo sapiens, UniProt P33261); experiment: Cytochrome P450 inhibition assay; type: in vitro ADME
Chain of CYP2C19 (P33261 whole entry): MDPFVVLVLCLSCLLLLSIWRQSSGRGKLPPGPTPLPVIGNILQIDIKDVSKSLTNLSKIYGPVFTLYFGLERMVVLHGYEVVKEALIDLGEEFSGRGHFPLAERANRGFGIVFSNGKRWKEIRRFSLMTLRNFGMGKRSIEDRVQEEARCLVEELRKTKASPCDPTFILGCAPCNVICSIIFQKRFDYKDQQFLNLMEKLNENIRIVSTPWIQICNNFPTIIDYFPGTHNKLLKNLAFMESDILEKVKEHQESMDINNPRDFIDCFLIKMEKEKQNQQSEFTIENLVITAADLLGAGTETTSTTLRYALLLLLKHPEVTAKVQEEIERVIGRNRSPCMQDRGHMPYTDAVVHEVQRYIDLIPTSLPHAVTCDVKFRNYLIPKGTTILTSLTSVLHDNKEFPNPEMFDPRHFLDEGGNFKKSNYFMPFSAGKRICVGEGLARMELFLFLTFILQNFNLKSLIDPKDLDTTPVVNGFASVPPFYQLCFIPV
Method: as §4

CYP2C9 = CYP2C9 (Homo sapiens, UniProt P11712); experiment: Cytochrome P450 inhibition assay; type: in vitro ADME
Chain of CYP2C9 (P11712 whole entry): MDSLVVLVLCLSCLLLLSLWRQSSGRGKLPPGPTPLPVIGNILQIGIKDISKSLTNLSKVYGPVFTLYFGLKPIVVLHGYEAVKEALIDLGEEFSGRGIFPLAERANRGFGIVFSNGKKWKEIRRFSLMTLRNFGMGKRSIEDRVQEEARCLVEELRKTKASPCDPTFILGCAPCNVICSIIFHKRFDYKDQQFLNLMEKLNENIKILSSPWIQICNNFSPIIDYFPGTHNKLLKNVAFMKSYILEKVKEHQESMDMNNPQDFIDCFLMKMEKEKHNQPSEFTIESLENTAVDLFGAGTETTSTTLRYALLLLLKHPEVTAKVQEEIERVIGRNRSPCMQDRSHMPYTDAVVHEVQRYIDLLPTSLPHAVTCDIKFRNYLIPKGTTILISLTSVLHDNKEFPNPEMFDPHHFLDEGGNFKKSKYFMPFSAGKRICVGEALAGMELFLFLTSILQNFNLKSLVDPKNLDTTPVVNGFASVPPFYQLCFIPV
Method: as §4

CYP2D6 = CYP2D6 (Homo sapiens, UniProt P10635); experiment: Cytochrome P450 inhibition assay; type: in vitro ADME
Chain of CYP2D6 (P10635 whole entry): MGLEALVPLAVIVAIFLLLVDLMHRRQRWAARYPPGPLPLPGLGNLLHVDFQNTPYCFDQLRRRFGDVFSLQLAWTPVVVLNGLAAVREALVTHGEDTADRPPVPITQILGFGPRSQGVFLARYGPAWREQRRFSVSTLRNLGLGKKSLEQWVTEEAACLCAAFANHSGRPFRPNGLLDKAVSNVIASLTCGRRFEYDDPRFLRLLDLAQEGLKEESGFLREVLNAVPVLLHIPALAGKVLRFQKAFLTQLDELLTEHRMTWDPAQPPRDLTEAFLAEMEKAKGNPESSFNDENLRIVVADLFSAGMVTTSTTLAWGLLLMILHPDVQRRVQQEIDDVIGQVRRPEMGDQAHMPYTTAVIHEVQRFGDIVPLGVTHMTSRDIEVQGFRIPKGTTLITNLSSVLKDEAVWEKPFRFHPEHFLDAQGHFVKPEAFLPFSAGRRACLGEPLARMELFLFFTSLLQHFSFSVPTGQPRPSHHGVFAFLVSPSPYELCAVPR
Method: as §4

CYP3A4 = CYP3A4 (Homo sapiens, UniProt P08684); experiment: Cytochrome P450 inhibition assay; type: in vitro ADME
Chain of CYP3A4 (P08684 whole entry): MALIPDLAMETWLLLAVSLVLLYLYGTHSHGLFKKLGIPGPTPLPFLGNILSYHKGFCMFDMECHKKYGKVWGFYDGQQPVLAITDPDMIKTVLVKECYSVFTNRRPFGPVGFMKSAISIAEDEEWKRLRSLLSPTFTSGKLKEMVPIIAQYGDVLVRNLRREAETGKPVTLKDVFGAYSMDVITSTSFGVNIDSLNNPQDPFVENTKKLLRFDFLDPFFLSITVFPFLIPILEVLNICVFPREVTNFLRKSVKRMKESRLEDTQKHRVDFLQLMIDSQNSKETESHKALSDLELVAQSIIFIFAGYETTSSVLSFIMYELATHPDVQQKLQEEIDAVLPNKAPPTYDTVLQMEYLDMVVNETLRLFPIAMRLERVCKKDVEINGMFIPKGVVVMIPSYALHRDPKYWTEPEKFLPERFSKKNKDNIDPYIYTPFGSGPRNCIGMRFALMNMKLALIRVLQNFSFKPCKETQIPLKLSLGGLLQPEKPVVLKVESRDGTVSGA
Method: as §4

[6] = system: caspase-3 activation in HCT-116; experiment: Caspase-3/7 assay; type: cell-based; conditions: HCT-116 cells, 24 hr, 1, 3 and 5 uM
Method: The following protocol was followed (24 hr). On Day 1, seed 0.015×10^6 HCT-116 cells/50 ul/well. Incubate o/n in 37° C. CO2 incubator. On Day 2, remove 25 ul of medium from wells. Treat HCT-116 cells with 1, 3, 5 uM CX-3543. Treat positive control group with Staurosporin 0.01, 0.1, 1 uM. Keep six negative control wells treated with medium only (add 25 ul of diluted sample to appropriate wells). Incubate for 24 h at 37° C. in a CO2 incubator. On Day 3, prepare Apo-ONE Homogeneous Caspase-3/7 assay reagent (Promega) at 10 ul reagent/1 ml buffer. Add 50 ul of diluted reagent. Incubate one hour at room temp. Measure fluorescence at 485/520.

Formulated solubility = type: physicochemical
[7] = biological target: c-Myc template DNA (c-myc quadruplex); experiment: Quadruplex binding / stop assay (Taq polymerase arrest, capillary electrophoresis); conditions: read-out: IC50 value in the stop assay; arrest product/full-length product ratio 1:1; FIG. 2

CN1CCCC1CCNC(=O)c1cn2c3c(c(N4CCC(c5cnccn5)C4)c(F)cc3c1=O)Oc1cc3ccccc3cc1-2 (stereo not shown) [CX-3543]
interaction with quadruplex ([1]; BCl-2, chair-eller / basket quadruplex): less strongly | IC50 ([1]; insert BCL-2): 2 µM | interaction with quadruplex ([2]; H-RAS, propeller quadruplex): strongly | IC50 ([2]; insert H-RAS): 1.1 µM | interaction with quadruplex ([3]; HMGA-2, heptad-tetrad): weakly | IC50 ([3]; insert HMGA): > 10 µM | interaction with quadruplex ([4]; Hum Tel, chair-eller / basket quadruplex): less strongly | IC50 ([4]; insert HumTel): 3.3 µM | interaction with quadruplex (SRC quadruplex (SRC89); SRC, heptad-tetrad): weakly | IC50 (SRC quadruplex (SRC89); insert SRC): > 10 µM | interaction with quadruplex ([5]; TGF-β, propeller quadruplex): strongly | IC50 ([5]; insert TGF-β): 1.3 µM | interaction with quadruplex (c-myc quadruplex (MYC99); c-myc, propeller quadruplex): strongly | IC50 (c-myc quadruplex (MYC99); insert c-MYC): 0.6 µM | interaction with quadruplex (i-motif (IMOTIF99); i-motif): weakly | IC50 (i-motif (IMOTIF99); insert I-Motif): > 10 µM | inhibition of CYP1A2 (CYP1A2): No significant inhibition | inhibition of CYP2C19 (CYP2C19): No significant inhibition | inhibition of CYP2C9 (CYP2C9): No significant inhibition | IC50 (CYP2C9; isoform 2C9, substrate Diclofenac): > 10 µM | inhibition of CYP2D6 (CYP2D6): No significant inhibition | IC50 (CYP2D6; isoform 2D6, substrate Dextromethorphan): > 25 µM | range in which only minor and partial inhibition of CYP3A4 was evident (CYP3A4): 1 to 3 µM | IC50 (CYP3A4; isoform 3A4, substrate Midazolam): 1.4 µM | IC50 (CYP3A4; isoform 3A4, substrate Testosterone): 3.3 µM | caspase-3 levels [6]: dose responsive increase | solubility (Formulated solubility): ~20 mg/mL (≈ 33.1 mM) | IC50 [7]: 1 µM
